Measurements taken from US20260069588A1, “VEPDEGESTRANT FOR USE IN TREATING CANCER” (Arvinas Operation, Inc., priority 2022, published 2026).

Assay: FIH Study Part A dose escalation: adverse events
Text: TEAEs and TRAEs from the clinical study database were coded to system organ class and preferred term using MedDRA version 22.0 and SAEs from the centralized safety database were coded using MedDRA version 25.0. The severity of adverse events was graded according to the NCI CTCAE version 5.0.

## O=C1CC[C@H](N2Cc3cc(N4CCN(CC5CCN(c6ccc([C@@H]7c8ccc(O)cc8CC[C@@H]7c7ccccc7)cc6)CC5)CC4)ccc3C2=O)C(=O)N1 [Compound A, (S)-3-(5-(4-((1-(4-((1R,2S)-6-hydroxy-2-phenyl-1,2,3,4-tetrahydronaphthalen-1-yl)phenyl)piperidin-4-yl)methyl)piperazin-1-yl)-1-oxoisoindolin-2-yl)piperidine-2,6-dione]
200 mg (N=8)
  TRAE Nausea: 2 n
  TRAE Vomiting: 1 n
360 mg (N=15)
  TEAE Alanine aminotransferase increased: 1 n
  TEAE Arthralgia: 2 n
  TEAE Aspartate aminotransferase increased: 0 n
  TEAE Back pain: 2 n
  TEAE Constipation: 5 n
  TEAE Decreased appetite: 4 n
  TEAE Diarrhea: 4 n
  TEAE Dizziness: 2 n
  TEAE Fatigue: 4 n
  TEAE Headache: 4 n
  TEAE Hot flush: 2 n
  TEAE Hyperglycemia: 2 n
  TEAE Insomnia: 1 n
  TEAE Nausea: 4 n
  TEAE Pain in extremity: 1 n
  TEAE Vomiting: 5 n
  TRAE Arthralgia: 0 n
  TRAE Constipation: 3 n
  TRAE Decreased appetite: 2 n
  TRAE Fatigue: 3 n
  TRAE Hot flush: 1 n
  TRAE Nausea: 3 n
  TRAE Vomiting: 2 n
500 mg (N=22)
  TEAE Alanine aminotransferase increased: 2 n
  TEAE Arthralgia: 4 n
  TEAE Aspartate aminotransferase increased: 1 n
  TEAE Back pain: 6 n
  TEAE Constipation: 10 n
  TEAE Decreased appetite: 2 n
  TEAE Diarrhea: 3 n
  TEAE Dizziness: 2 n
  TEAE Fatigue: 14 n
  TEAE Headache: 3 n
  TEAE Hot flush: 5 n
  TEAE Hyperglycemia: 5 n
  TEAE Insomnia: 4 n
  TEAE Nausea: 9 n
  TEAE Pain in extremity: 5 n
  TEAE Vomiting: 4 n
  TRAE Arthralgia: 2 n
  TRAE Constipation: 3 n
  TRAE Decreased appetite: 1 n
  TRAE Fatigue: 9 n
  TRAE Hot flush: 5 n
  TRAE Nausea: 7 n
  TRAE Vomiting: 3 n
700 mg (N=4)
  TEAE Alanine aminotransferase increased: 0 n
  TEAE Arthralgia: 0 n
  TEAE Aspartate aminotransferase increased: 2 n
  TEAE Back pain: 2 n
  TEAE Constipation: 1 n
  TEAE Decreased appetite: 1 n
  TEAE Diarrhea: 1 n
  TEAE Dizziness: 2 n
  TEAE Fatigue: 2 n
  TEAE Headache: 1 n
  TEAE Hot flush: 0 n
  TEAE Hyperglycemia: 1 n
  TEAE Insomnia: 1 n
  TEAE Nausea: 2 n
  TEAE Pain in extremity: 0 n
  TEAE Vomiting: 1 n
  TRAE Arthralgia: 0 n
  TRAE Constipation: 0 n
  TRAE Decreased appetite: 0 n
  TRAE Fatigue: 2 n
  TRAE Hot flush: 0 n
  TRAE Nausea: 1 n
  TRAE Vomiting: 0 n
6 Jun 2023
  Grade 4 or Grade 5 TRAEs: no Grade 4 or Grade 5 TRAEs
6 Jun 2023, N=83
  Grade 1 TEAEs: 34.9%
  Grade 1 TRAEs: 41.0%
  Grade 2 TEAEs: 41.0%
  Grade 2 TRAEs: 24.1%
  Grade 3 TEAEs: 16.9%
  Grade 3 TRAE electrocardiogram QT prolonged: 2 patients
  Grade 4 TEAEs: 2.4%
  Grade 5 TEAE: 1.2%
  TEAE of Grade ≥3: 20.5%
  patients with Grade 3 TRAEs: 7.2%
  patients with at least 1 TEAE: 96.4%
  patients with at least 1 TRAE: 72.3%
6 Jun 2023, N=83, 11
  SAEs: 13.3%
33 of 83 participants
  deaths: 39.8%
Patient 1, 30 mg QD, onset day 30, Not related
  SAE Procedural pain, Grade: 3
Patient 2, 250 mg BID, onset day 59, Not related
  SAE Humerus fracture, Grade: 3
Patient 3, 360 mg QD, onset day 42, Possibly related, SUSAR
  SAE Embolism venous, Grade: 3
Patient 4, 200 mg QD
  SAE Colitis, Grade: 1
  SAE Neutrophil count decreased, Grade: 4
Patient 4, 200 mg QD, onset day 79, Not related
  SAE Stomatitis, Grade: 3
Patient 5, 250 mg BID, onset day 10
  SAE Malignant pleural effusion, Grade: 3
Patient 5, 250 mg BID, onset day 26, Not related
  SAE Cardiac arrest, Grade: 5
Patient 6, 360 mg QD, onset day 54, Unlikely related
  SAE Embolism, Grade: 3
Patient 7, 500 mg QD, onset day 49, Not related
  SAE Hypoglycemia, Grade: 4
Patient 8, 100 mg QD, onset day 118, Not related
  SAE Acute kidney injury, Grade: 3
Total (N=78)
  TEAE Alanine aminotransferase increased: 8 n
  TEAE Arthralgia: 14 n
  TEAE Aspartate aminotransferase increased: 11 n
  TEAE Back pain: 13 n
  TEAE Constipation: 24 n
  TEAE Decreased appetite: 12 n
  TEAE Diarrhea: 13 n
  TEAE Dizziness: 8 n
  TEAE Fatigue: 26 n
  TEAE Headache: 13 n
  TEAE Hot flush: 11 n
  TEAE Hyperglycemia: 10 n
  TEAE Insomnia: 9 n
  TEAE Nausea: 26 n
  TEAE Pain in extremity: 10 n
  TEAE Vomiting: 14 n
  TRAE Arthralgia: 8 n
  TRAE Constipation: 10 n
  TRAE Decreased appetite: 8 n
  TRAE Fatigue: 17 n
  TRAE Hot flush: 8 n
  TRAE Nausea: 20 n
  TRAE Vomiting: 8 n
cut-off 6 Jun 2022
  Grade 4 or Grade 5 TRAEs: no Grade 4 or Grade 5 TRAEs
  patients reporting SAEs: 8 of 78 patients
  total SAEs: 11 SAEs
cut-off 6 Jun 2022, N=78
  Grade 1 TEAEs: 34.6%
  Grade 1 TRAEs: 42.3%
  Grade 2 TEAEs: 39.7%
  Grade 2 TRAEs: 21.8%
  Grade 3 TEAEs: 11.5%
  Grade 3 hypertension: 2 patients
  Grade 4 TEAEs: 3.8%
  Grade 5 TEAE: 1.3%
  TEAE of Grade ≥3: 16.7%
  patients with Grade 3 TRAEs: 5.1%
  patients with at least 1 TEAE: 91.0%
  patients with at least 1 TRAE: 69.2%
Five of 83 patients
  TEAE leading to discontinuation: 6.0%
